Assay results reported in patent US9661844B2, “Pesticide composition delivery vehicles” (Dow AgroSciences LLC, priority 2012, dated 2017).

Columns and labels:
nematode = assay: Capsule field trial Location 2, nematode count; format: in vivo; conditions: 3.5 Kg/Ha granules
Description: (§1) Field trials for the gel capsules of Example I were established under commercial conditions in banana production areas of Central America. Bananas were transplanted using commercial procedures typical of the area. Gel capsules according to Example I were used as a post-plant treatment. A commercial standard was also included as a comparison in each test. Treatments and use rates for both field trials are included in the Tables 3 and 4 below. Location 1 included four replications for each treatment and location 2 included three replications.
(§2) Gel caps were applied in the area immediately surrounding the base of the banana plant. Holes were made to a depth of 15-20 cm using a rod inserted into the soil. Gel caps were applied into the holes by hand and soil was reapplied into the holes to cover the gel caps. Commercial standards were formulated as granules and applied around the base of the plant without incorporation.
Several parameters were measured at intervals following application of the pesticide. Plant height and plant trunk diameter were evaluated over time at intervals of approximately two, four and six weeks after application of the pesticide. Root weight, percent functional roots and nematode counts were taken at intervals of 45 and 60 days after application (DAA). Plant height and trunk diameter were evaluated as direct measurements and are recorded in units of centimeters. […]

banana plant = assay: Capsule field trial Location 2, banana growth parameters; format: in vivo; conditions: 3.5 Kg/Ha granules
Description: as §1, §2
Several parameters were measured at intervals following application of the pesticide. Plant height and plant trunk diameter were evaluated over time at intervals of approximately two, four and six weeks after application of the pesticide. Root weight, percent functional roots and nematode counts were taken at intervals of 45 and 60 days after application (DAA). Plant height and trunk diameter were evaluated as direct measurements and are recorded in units of centimeters. Root weight, percent functional roots and nematode counts were obtained by separate soil samples which were taken and returned to the lab for analysis. Roots were separated from the soil and weighed. A separate, visual estimate was made to determine the percent of these roots that were healthy and functional. Nematode counts were made by extracting them from the roots and soil and then estimating the total by counting the actual number in subsamples of the extracted materials.

For `CCOP(=O)(SC(C)CC)SC(C)CC` (stereo not drawn) [cadusaphos, cadusafos], the Nematode count (nematode; 45 DAA) was 11,200a, the Nematode count (nematode; 60 DAA) was 23,733a and the “Plant Height” value (banana plant; 15 DAA) was 143 cm. The Stem diameter (banana plant; 15 DAA) was 30 cm, the “Plant Height” value (banana plant; 29 DAA) was 156 cm and the Stem diameter (banana plant; 29 DAA) was 33 cm. The “Plant Height” value (banana plant; 43 DAA) was 169 cm, the Stem diameter (banana plant; 43 DAA) was 36 cm and the “% Functional roots” value (banana plant; 45 DAA) was 82%. The Root weight (banana plant; 45 DAA) was 44 gms, the “% Functional roots” value (banana plant; 60 DAA) was 86% and the Root weight (banana plant; 60 DAA) was 53 gms.
